Test results: US20070167631A1, “Novel herbicides” (priority 2003, published 2007)

How the values were obtained:
Assay type in all cases: in vivo
Abutilon = assay: Pre-emergence herbicidal action (Example B1); conditions: 250 g/ha, after 4 weeks, rating scale 10=total damage, 0=no action
Method: (§1) Monocotyledonous and dicotyledonous test plants are sown in standard soil in pots or seed trays. Immediately after sowing, the test compounds, in the form of an aqueous suspension (prepared from a wettable powder (Example F3, b) according to WO 97/34485) or in the form of an emulsion (prepared from an emulsifiable concentrate (Example F1, c) according to WO 97/34485), are applied by spraying in a concentration of 250 g/ha. The test plants are then grown in a greenhouse under optimum conditions. After a test duration of 4 weeks, the test is evaluated in accordance with a scale of eleven ratings (10=total damage, 0=no action). Ratings of from 10 to 7 (especially from 10 to 8) indicate very good to good herbicidal action.

Amaranthus [1] = assay: Pre-emergence herbicidal action (Example B1); conditions: 250 g/ha, after 4 weeks, rating scale 10=total damage, 0=no action
Method: as §1

Chenopodium [2] = assay: Pre-emergence herbicidal action (Example B1); conditions: 250 g/ha, after 4 weeks, rating scale 10=total damage, 0=no action
Method: as §1

Digitaria [3] = assay: Pre-emergence herbicidal action (Example B1); conditions: 250 g/ha, after 4 weeks, rating scale 10=total damage, 0=no action
Method: as §1

Echinochloa [4] = assay: Pre-emergence herbicidal action (Example B1); conditions: 250 g/ha, after 4 weeks, rating scale 10=total damage, 0=no action
Method: as §1

Panicum [5] = assay: Pre-emergence herbicidal action (Example B1); conditions: 250 g/ha, after 4 weeks, rating scale 10=total damage, 0=no action
Method: as §1

Scirpus = assay: Pre-emergence herbicidal action (Example B1); conditions: 250 g/ha, after 4 weeks, rating scale 10=total damage, 0=no action
Method: as §1

Amaranthus [6] = assay: Post-emergence herbicidal action (Example B2); conditions: 250 g/ha, after about 18 days, rating scale 10=total damage, 0=no action
Source text: (§2) Monocotyledonous and dicotyledonous test plants are cultivated in a greenhouse in standard soil in plastic pots and, at the 4- to 6-leaf stage, are sprayed with an aqueous suspension of the test compounds of formula I prepared from a 25% wettable powder (Example F3, b) according to WO 97/34485) or with an emulsion of the test compounds of formula I prepared from a 25% emulsifiable concentrate (Example F1, c) according to WO 97/34485), corresponding to concentrations of 125 and 250 g of active ingredient per hectare (500 litres of water per ha). The test plants are then grown on in the greenhouse under optimum conditions. After a test duration of about 18 days, the test is evaluated in accordance with a scale of eleven ratings (10=total damage, 0=no action). Ratings of from 10 to 7 (especially from 10 to 8) indicate very good to good herbicidal action.

Chenopodium [7] = assay: Post-emergence herbicidal action (Example B2); conditions: 250 g/ha, after about 18 days, rating scale 10=total damage, 0=no action
Source text: as §2

Echinochloa [8] = assay: Post-emergence herbicidal action (Example B2); conditions: 250 g/ha, after about 18 days, rating scale 10=total damage, 0=no action
Source text: as §2

Euphorbia = assay: Post-emergence herbicidal action (Example B2); conditions: 250 g/ha, after about 18 days, rating scale 10=total damage, 0=no action
Source text: as §2

Panicum [9] = assay: Post-emergence herbicidal action (Example B2); conditions: 250 g/ha, after about 18 days, rating scale 10=total damage, 0=no action
Source text: as §2

Stellaria [10] = assay: Post-emergence herbicidal action (Example B2); conditions: 250 g/ha, after about 18 days, rating scale 10=total damage, 0=no action
Source text: as §2

Xanthium = assay: Post-emergence herbicidal action (Example B2); conditions: 250 g/ha, after about 18 days, rating scale 10=total damage, 0=no action
Source text: as §2

Digitaria [11] = assay: Microscreen, post-emergence herbicidal action (Example B3); conditions: 250 g/ha, evaluated after 9 or 13 days, scale of eleven ratings (10=total damage, 0=no action)
Method: (§3) Example B3 Microscreen, Post-Emergence Herbicidal Action Monocotyledonous and dicotyledonous test plants are sown in sterilised standard soil in seed trays each having 96 cells. After 8 to 9 days' cultivation under controlled conditions in a climatic chamber (cultivation at 17/23° C.; 13 hours' light; 50-60% humidity; after application at 19/24° C.), the plants are treated with an aqueous spray solution of 1000 mg/l of the active ingredient used ([…]; incl. 10% DMSO as solvent). The plants are grown on in the climatic chamber until the test is evaluated after 9 or 13 days. The test is evaluated in accordance with a scale of eleven ratings (10=total damage, 0=no action). Ratings of from 10 to 7 (especially from 10 to 8) indicate very good to good herbicidal action.

Stellaria [12] = assay: as above; conditions: 250 g/ha, evaluated after 9 or 13 days, scale of eleven ratings (10=total damage, 0=no action)
Method: as §3

Amaranthus [13] = assay: as above; conditions: 250 g/ha, evaluated after 9 or 13 days, scale of eleven ratings (10=total damage, 0=no action)
Method: (§4) Example B3 Microscreen, Post-Emergence Herbicidal Action Monocotyledonous and dicotyledonous test plants are sown in sterilised standard soil in seed trays each having 96 cells. […] The plants are grown on in the climatic chamber until the test is evaluated after 9 or 13 days. The test is evaluated in accordance with a scale of eleven ratings (10=total damage, 0=no action). Ratings of from 10 to 7 (especially from 10 to 8) indicate very good to good herbicidal action.

Nasturtium = assay: as above; conditions: 250 g/ha, evaluated after 9 or 13 days, scale of eleven ratings (10=total damage, 0=no action)
Method: as §4

Solanum = assay: as above; conditions: 250 g/ha, evaluated after 9 or 13 days, scale of eleven ratings (10=total damage, 0=no action)
Method: as §4

Row | SMILES | Pre-emergence action: Abutilon (Abutilon) | Pre-emergence action: Amaranthus (Amaranthus [1]) | Pre-emergence action: Chenopodium (Chenopodium [2]) | Pre-emergence action: Digitaria (Digitaria [3]) | Pre-emergence action: Echinochloa (Echinochloa [4]) | Pre-emergence action: Panicum (Panicum [5]) | Pre-emergence action: Scirpus (Scirpus) | Post-emergence action: Amaranthus (Amaranthus [6]) | Post-emergence action: Chenopodium (Chenopodium [7]) | Post-emergence action: Echinochloa (Echinochloa [8]) | Post-emergence action: Euphorbia (Euphorbia) | Post-emergence action: Panicum (Panicum [9]) | Post-emergence action: Stellaria (Stellaria [10]) | Post-emergence action: Xanthium (Xanthium) | Digitaria, herbicidal action rating (Digitaria [11]) | Stellaria, herbicidal action rating (Stellaria [12]) | Amaranthus, herbicidal action rating (Amaranthus [13]) | Nasturtium, herbicidal action rating (Nasturtium) | Solanum, herbicidal action rating (Solanum)
1 | COC(COc1nc(C(=O)C2=C(O)CCCC2=O)ccc1C(F)(F)F)OC [Compound 1.012] | 10 | 5 | 0 | 9 | 5 | 10 | 7 | 9 | 8 | 8 | 9 | 7 | 7 | 8 | – | – | – | – | –
2 | O=C1CCCC(O)=C1C(=O)c1ccc(C(F)(F)F)c(N2CCOCC2)n1 [Compound 1.073] | 10 | 6 | 10 | 10 | 10 | 10 | – | 10 | 8 | 9 | 9 | 10 | 9 | 9 | – | – | – | – | –
3 | CC1(c2nc(C(=O)C3=C(O)CCCC3=O)ccc2C(F)(F)F)OCCO1 [Compound 1.192] | – | – | – | – | – | – | – | – | – | – | – | – | – | – | 7 | 9 | 8 | 10 | 9
4 | Cc1cc(-c2nc(C(=O)C3=C(O)CCCC3=O)ccc2C(F)(F)F)on1 [Compound 1.204] | – | – | – | – | – | – | – | – | – | – | – | – | – | – | 8 | 10 | 10 | 10 | 10
5 | O=C1CCCC(O)=C1C(=O)c1ccc(C(F)(F)F)c(-c2ccc(C(F)(F)F)cc2)n1 [Compound 1.209] | – | – | – | – | – | – | – | – | – | – | – | – | – | – | 8 | 9 | 9 | 9 | 9
6 | Cc1nc(C(=O)C2=C(O)CCCC2=O)ccc1C(F)(F)F [Compound 1.211] | – | – | – | – | – | – | – | – | – | – | – | – | – | – | 5 | 8 | 8 | 10 | 8
7 | N#Cc1nc(C(=O)C2=C(O)CCCC2=O)ccc1C(F)(F)F [Compound 1.212] | – | – | – | – | – | – | – | – | – | – | – | – | – | – | 3 | 7 | 7 | 8 | 8
8 | CC(C)=NOCCOc1nc(C(=O)C2=C(O)C(C)(C)C(=O)C(C)(C)C2=O)ccc1C(F)(F)F [Compound 2.010] | – | – | – | – | – | – | – | – | – | – | – | – | – | – | 3 | 8 | 8 | 9 | 9
9 | CN(C)c1nc(C(=O)C2=C(O)C(C)(C)C(=O)C(C)(C)C2=O)ccc1C(F)(F)F [Compound 2.059] | 10 | 7 | 9 | 7 | 8 | 7 | – | 7 | 10 | 8 | 6 | 5 | 8 | 7 | – | – | – | – | –
10 | CCN(CC)c1nc(C(=O)C2=C(O)C(C)(C)C(=O)C(C)(C)C2=O)ccc1C(F)(F)F [Compound 2.060] | – | – | – | – | – | – | – | – | – | – | – | – | – | – | 9 | 10 | 9 | 10 | 10
11 | COCCNc1nc(C(=O)C2=C(O)C(C)(C)C(=O)C(C)(C)C2=O)ccc1C(F)(F)F [Compound 2.064] | – | – | – | – | – | – | – | – | – | – | – | – | – | – | 9 | 10 | 8 | 10 | 10
12 | CC1CN(c2nc(C(=O)C3=C(O)C(C)(C)C(=O)C(C)(C)C3=O)ccc2C(F)(F)F)CC(C)O1 (stereo not shown) [Compound 2.075] | – | – | – | – | – | – | – | – | – | – | – | – | – | – | 7 | 9 | 6 | 10 | 10
13 | CC(=O)N(C)c1nc(C(=O)C2=C(O)C(C)(C)C(=O)C(C)(C)C2=O)ccc1C(F)(F)F [Compound 2.088] | 9 | – | 7 | 9 | 7 | 9 | 0 | – | – | – | – | – | – | – | – | – | – | – | –
14 | CCC(=O)N(C)c1nc(C(=O)C2=C(O)C(C)(C)C(=O)C(C)(C)C2=O)ccc1C(F)(F)F [Compound 2.089] | 9 | 8 | 0 | 8 | 8 | 9 | – | 0 | 9 | 7 | 8 | 8 | 8 | 7 | – | – | – | – | –
15 | CN(C(=O)c1ccccc1)c1nc(C(=O)C2=C(O)C(C)(C)C(=O)C(C)(C)C2=O)ccc1C(F)(F)F [Compound 2.090] | – | – | – | – | – | – | – | – | – | – | – | – | – | – | 2 | 8 | 6 | 10 | 10
16 | Cc1cc(-c2nc(C(=O)C3=C(O)C(C)(C)C(=O)C(C)(C)C3=O)ccc2C(F)(F)F)on1 [Compound 2.202] | – | – | – | – | – | – | – | – | – | – | – | – | – | – | 6 | 10 | 6 | 10 | 10
17 | Cc1nc(C(=O)C2=C(O)C(C)(C)C(=O)C(C)(C)C2=O)ccc1C(F)(F)F [Compound 2.203] | 10 | 9 | – | 5 | 9 | 6 | 8 | 6 | 6 | 9 | 9 | 9 | 9 | 9 | – | – | – | – | –
